This is an account of results in patent US20200072711A1, “FLUORESCENT ENDOPLASMIC RETICULUM TRACKERS FOR LIVE CELL IMAGING OF PATHOGENIC YEAST” (Ramot at Tel Aviv University Ltd., priority 2018, published 2020).

For data set [1], the system named is tested panel of Candida strains. Nature of the data set: Live cell imaging, ER labeling. The data set is classed as cell-based. The conditions noted are these: panel of Candida strains (C. albicans and C. glabrata). The protocol: (§1) Growth conditions for live cell imaging. Cells were grown to log phase in liquid YPD overnight at 30° C. in a 10 ml tube. Cells were diluted 1:10 and then incubated for 2 h at 30° C. to log phase.
(§2) Cell staining. The fluorescent probes were added to a final concentration of 10 μM for probes 1-6 to cells from a log phase culture grown in YPD broth media at 30° C. Cells were then incubated in the dark for a total of 60 min. Before imaging, cells were washed once with PBS buffer. For ER-tracker dyes, DiOC6 (1 μg/mL) and BODIPY™ TR Glibenclamide (1 μM), staining cells were incubated in a prepared Hanks' Balanced Salt Solution at 37° C. for 5 min and 30 min, respectively. For ER-tracker Blue-White DPX (1 μM), staining cells were incubated in YPD for 30 min at 30° C. For mitochondrial staining the previously reported Cy5-based mitochondrial dye was used (1 μg/mL). For staining, cells were incubated in YPD in the presence of dye for 5 min at 30° C. Cells were then washed with PBS buffer once.
Live cell imaging. Candida cells were resuspended in PBS buffer and 2 μL were placed on a glass slides and covered with glass coverslips. C. glabrata (ATCC 2001) cells treated with probes 1-6, all tested Candida cells treated with ER-tracker Blue-White DPX and inter-organelle interaction study were imaged on a MORE imaging system (TILL Photonics GmbH) with an Olympus UPlanApo 100X 1.3 NA oil immersion objective. The bandpass filter sets used to image probes 1-3 were excitation 427/10 nm and emission 510/20 nm. The bandpass filter sets used to image probes 4-6 were excitation 485/20 nm and emission 525/30 nm. The bandpass filter sets used to image ER-tracker Blue-White DPX were excitation 390/40 nm and emission 525/30 nm. The bandpass filter sets used to image Cy5-based mitochondrial dye were excitation 560/25 nm and emission 684/24 nm. C. albicans cells (ATCC 24433 and SN152) and C. glabrata (ATCC 66032) treated with probes 1-6 were imaged on a Nikon Ti microscope equipped with a Plan Apo VC 100X oil objective and a Zyla 5.5 sCMOS camera (Andor) run by NIS elements Ar software. The bandpass filter sets used to image probes 1-3, and DiOC6-stained cells were excitation 440 nm and emission 480/40 nm. The bandpass filter sets used to image cells treated with probes 4-6, excitation 470 nm and emission 525/50 nm were used. For Eno1-mCherry, excitation 585 nm and emission 630/75 nm were used. To optimize the probes, the effects of the concentration (1, 5 and 10 μM), incubation time (5, 30, 60 and 120 min) and media (YPD and HBSS) were investigated. Images were processed using ImageJ program. The smoothed imaged were generated using the convolve filter (Normalize Kernel).

Data set [2] relates to C. albicans cells. Nature of the data set: Live cell imaging, ER labeling. Type of data set: cell-based, Candida albicans. The protocol:
as §1, §2
(§3) Live cell imaging. Candida cells were resuspended in PBS buffer and 2 μL were placed on a glass slides and covered with glass coverslips. […]

Data set [3] concerns C. glabrata strains. As to the kind of experiment: Live cell imaging, ER labeling. Type of data set: cell-based, Candida glabrata. As to conditions: C. glabrata yeast cells. The protocol: as §1, §2, §3
The conditions of data set [4]: commercial ER-trackers; cited from earlier work.
Data set [5] relates to C. albicans SN152. As to the kind of experiment: Live cell imaging, ER labeling. The data set is classed as cell-based, Candida albicans. The protocol: as §1, §2, §3
In data set [6] the test system is C. albicans ATCC 24433. Nature of the data set: Minimal inhibitory concentration broth double-dilution assay. The data set is classed as cell-based. As to conditions: Candida albicans, ATCC24433, 24 h, 37° C., Casitone. The protocol:
(§4) Minimal inhibitory concentration broth double-dilution assay. All strains were tested using the double-dilution method in 96-well plates (Corning). Yeast strains were grown in Casitone growth medium. Starter cultures were incubated for 24 h (37° C., 5% CO2, aerobic conditions) and then diluted 1:100 into fresh medium. Compounds dissolved in ethanol or in DMSO were added to the casitone broth to form the mother liquor (32 μL stock solution in 1218 μL of casitone) at the starting concentration of 64 μg/mL. Next, 100 μL of serial double dilutions of compounds in Casitone ([…], and 0.007 μg/mL) were prepared in flat-bottomed 96-well microplates (Corning). Control wells with no compounds, and wells without yeast cells containing each tested concentration of the compounds (blanks), were also prepared. An equal volume (100 μL) of yeast suspensions in Casitone broth that was prepared as follows: 900 mL doubly distilled H2O, 9 g Casitone (bacto-casitone), 5 g yeast extract, 11.5 g sodium citrate dihydrate, 20 g glucose. The yeast suspension was added to each well for a final volume of 200 μL. The ethanol or the DMSO concentrations ranged from 0.0012% to 1.3%. The final inoculum was between 5×10^4 colony-forming unit (CFU)/mL and 5×10^5 CFU/mL; identical results were obtained when using 5×10^3 CFU/mL as a final inoculum. After incubation for 24 h at 37° C. in 5% CO2, MTT (3-[4,5-dimethylthiazole-2-yl]-2,5-diphenyltetrazolium bromide; 50 μL of a 1 mg/mL solution in H2O) was added to each well followed by additional incubation at 37° C. for 2 h. Each concentration was tested in triplicate, and results were confirmed by two independent sets of experiments.

The subject of data set [7] is C. albicans SN152. The data set is described as above. As to conditions: Candida albicans, 24 h, 37° C., Casitone. Type of data set: cell-based. The protocol: as §4
Data set [8] deals with C. glabrata ATCC 2001. Described as above. Type of data set: cell-based, Candida glabrata. The conditions noted are these: Nakaseomyces glabratus, ATCC2001, 24 h, 37° C., Casitone. The protocol:
as §4

Data set [9] deals with C. glabrata ATCC 66032. Described as above. As to conditions: Nakaseomyces glabratus, ATCC66032, 24 h, 37° C., Casitone. Type of data set: cell-based, Candida glabrata. The protocol:
as §4

A short description of data set [10]: Absorption and emission spectra of fluorescent probes. Type of data set: physicochemical. The conditions noted are these: 10 μM in PBS, pH=7.4; for emission maxima: excitation at 420 nm. The protocol:
FIGS. 4A-4F show absorption and emission spectra of probes 1-6 (10 μM in PBS, pH=7.4), respectively. Emission spectrum was measured after excitation at 420 nm.
General chemistry methods and instrumentation. ^1H-NMR spectra (including 1D-TOCSY) were recorded on BrukerAvance™ 400 or 500 MHz spectrometers, and chemical shifts (reported in ppm) were calibrated to CDCl3 (d=7.26) when CDCl3 was the solvent, or to CD3OD (d=3.31) when CD3OD was the solvent. ^13C-NMR spectra were recorded on BrukerAvance™ 400 or 500 MHz spectrometers at 100 or 125 MHz. ^19F-NMR spectra were recorded on BrukerAvance™ 400 or 500 MHz spectrometers at 375 or 470 MHz. Multiplicities are reported using the following abbreviations: b=broad, s=singlet, d=doublet, t=triplet, q=quartet. Coupling constants (J) are given in Hertz. HRESI mass spectra were measured on a Waters Synapt instrument. Chemical reactions were monitored by TLC (Merck, Silica gel 60 F254). Visualization was achieved using a cerium molybdate stain (5 g (NH4)2Ce(NO3)6, 120 g (NH4)6Mo7O24·4H2O, 80 mL H2SO4, 720 mL H2O) or with UV lamp. Unless otherwise stated, all chemicals were obtained from commercial sources. Compounds were purified using Geduran® Si 60 chromatography (Merck). The SpectraMax i3x Platform spectrophotometer from Molecular Devices was used for the measurement of the excitation and absorbance spectra of the fluorescent probes.
We first measured the absorption and emission spectra of fluorescent probes 1-6. […] This 70-nm redshift effect is attributed to the effect of the halogen atoms in the phenyl ring segment of these molecules: a difluorophenyl ring in probe 2 and a dichlorophenyl in probe 3.

The test system of data set [11] is all tested Candida strains. Nature of the data set: MIC assay, over the panel. The data set is classed as cell-based. The protocol:
as §4, with “The final inoculum was between 5×10^4 colony-forming unit (CFU)/mL and 5×10^5 CFU/mL; identical results were obtained when using 5×10^3 CFU/mL as a final inoculum. After incubation for 24 h at 37° C. in 5% CO2, MTT (3-[4,5-dimethylthiazole-2-yl]-2,5-diphenyltetrazolium bromide; 50 μL of a 1 mg/mL solution in H2O) was added to each well followed by additional incubation at 37° C. for 2 h. Each concentration was tested in triplicate, and results were confirmed by two independent sets of experiments.” left out
The ER-labeling properties were evaluated by incubating the compounds with representative strains of C. albicans and C. glabrata. […]

In brackets after ≈: the same amount, converted by molar mass. Entries after “also recorded” stand apart in the source; their conditions may differ. Some results are limits rather than exact numbers.

In the case of `COC(=O)CCC1=[N+]2C(=Cc3c(C)cc(C)n3[B-]2(F)F)C=C1` [BODIPY-methyl ester], the staining pattern entry in [1] is recorded as “the entire cytoplasm was labeled in a non-specific pattern”.

With `CN(C)c1ccc(-c2cnc(-c3ccc(S(=O)(=O)NCCNC(=O)c4c(F)c(F)c(F)c(F)c4F)cc3)o2)cc1` [Blue-White DPX], the staining pattern result in data set [2] is on record as “non-specific staining of the cytoplasm”; in data set [3], “label the ER; also recorded: a circular pattern around the nuclear envelope with peripheral cortical extensions reminiscent of the ER structure was clearly visible”; in data set [1], “stained Candida glabrata cells only; also recorded: non-specific labeling of additional intracellular compartments, such as lipid droplets, was observed”. Besides, in data set [4], the “emission (em)” value is 430-640 nm. Further, the “excitation (ex)” value in data set [4] was 374 nm.

`CCCCCCN1C(=CC=Cc2oc3ccccc3[n+]2CCCCCC)Oc2ccccc21.[I-]` [DiOC6, 3,3′-dihexyloxacarbocyanine iodide]: the staining pattern entry in data set [5] is “non-specific staining of other cellular compartments such as lipid droplets was also observed”; in data set [1], “more significant in C. albicans than in C. glabrata yeast cells; also recorded: non-specific labeling of additional intracellular compartments, such as lipid droplets, was observed”. For the same compound, the “emission (em)” value in [4] is given as 500 nm. Also, the “excitation (ex)” value in [4] is 480 nm.

Usually MIC stands for the smallest concentration in the dilution series that meets the test's criterion for growth inhibition. Low values mean greater potency, high ones weaker potency. Regarding `OC(Cn1cncn1)(Cn1cncn1)c1ccc(F)cc1F` [FLC, fluconazole, reference compound], the MIC was found to be 0.5 µg/mL (≈ 1.63 µM) in data set [6], 0.5 µg/mL (≈ 1.63 µM) in data set [7], 64 µg/mL (≈ 209 µM) in [8] and 64 µg/mL (≈ 209 µM) in [9].

Regarding `CCC(C)n1ncn(-c2ccc(N3CCN(c4ccc(OCC5COC(Cn6cncn6)(c6ccc(Cl)cc6Cl)O5)cc4)CC3)cc2)c1=O` (stereo not drawn) [ITR, itraconazole, reference compound], the MIC turned out to be 0.015 µg/mL (≈ 0.0213 µM) in data set [6], 0.007 µg/mL (≈ 0.00992 µM) in data set [7], 4 µg/mL (≈ 5.67 µM) in data set [8] and 0.5 µg/mL (≈ 0.709 µM) in data set [9].

Turning to `CCN(CC)c1ccc2cc(C(=O)NCC(O)(Cn3cncn3)c3ccc(F)cc3F)c(=O)oc2c1` (stereo not drawn) [Probe 1], the minimal inhibitory concentration (MIC) in data set [6] worked out at 0.03 µg/mL (≈ 0.0603 µM); in [7], 0.007 µg/mL (≈ 0.0141 µM); in data set [8], 16 µg/mL (≈ 32.2 µM); in data set [9] it was 8 µg/mL (≈ 16.1 µM).

Regarding `CCN(CC)c1ccc2cc(C(=O)NCC(O)(Cn3ccnn3)c3ccc(F)cc3F)c(=O)oc2c1` (stereo not drawn) [Probe 2], the MIC in [6] was > 64 µg/mL; in data set [7], > 64 µg/mL; in data set [8] it was > 64 µg/mL; in data set [9], > 64 µg/mL; in data set [11], ≥ 64 µg/mL. The compound also yielded an absorption spectrum maxima in [10] of 430 nm. Further, in [10], the emission maxima was found to be 480 nm. Besides, the staining pattern result in data set [1] was “the distinct nuclear envelope and cortical structure of the ER were clearly observed”.

On to `CCN(CC)c1ccc2cc(C(=O)NCC(O)(Cn3ccnn3)c3ccc(Cl)cc3Cl)c(=O)oc2c1` (stereo not drawn) [Probe 3], for which the MIC in [6] is > 64 µg/mL; in [7], > 64 µg/mL; in data set [8] it was > 64 µg/mL; in data set [9] it was > 64 µg/mL; in [11], ≥ 64 µg/mL. The compound further had an absorption spectrum maxima in data set [10] of 430 nm. Moreover, the emission maxima in data set [10] is reported as 550 nm. Also, the staining pattern result in data set [1] was “the distinct nuclear envelope and cortical structure of the ER were clearly observed”.

In the case of `CCOC(=O)c1cc2ccc(N(CC)CC)cc2oc1=O` [ethyl ester of 7-(diethyl)-aminocoumarin, 7-(diethyl)-aminocoumarin ethyl ester], the staining pattern result in [1] is on record as “did not stain the yeast cell interior of any of the tested Candida strains”.
